For the assay, the target named is MCH receptor (Homo sapiens, UniProt Q99705). The assay can be described thus: High throughput functional screening FLIPR/FDSS6000: inhibition of MCH-evoked intracellular Ca2+ changes. Conditions: class by percent of control at 10^-7 M or by IC50; read-out: class. It is filed as cell-based. In a few lines:
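In a kinetic calcium-flux format, compounds were tested at various concentrations against 50 nM MCH. Fluo4-loaded cells expressing a constitutively active, non-endogenous receptor were imaged at 488/530 nm for 290 s after agonist addition.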

Bounds are passed on as bounds.

In the case of `CCCCCNC(=O)N[C@H]1CC[C@@H](Nc2nc(N(C)C)c3ccccc3n2)CC1` [compound 54, N-(cis-4-{[4-(dimethylamino)quinazolin-2-yl]amino}cyclohexyl)-N′-pentylurea], the IC50 was less than 50 nM.
On to `CN(C)c1nc(N[C@H]2CC[C@@H](NC(=O)Nc3ccccc3C(F)(F)F)CC2)nc2ccccc12` [compound 55, N-(cis-4-{[4-(dimethylamino)quinazolin-2-yl]amino}cyclohexyl)-N′-[2-(trifluoromethyl)phenyl]urea], for which the IC50 was less than 50 nM.
As to `CN(C)c1nc(N[C@H]2CC[C@@H](NC(=O)Nc3cccc(C(F)(F)F)c3)CC2)nc2ccccc12` [compound 56], the IC50 is greater than 200 nM.
Turning to `Cc1ccc(NC(=O)N[C@H]2CC[C@@H](Nc3nc(N(C)C)c4ccccc4n3)CC2)cc1` [compound 57, N-(cis-4-{[4-(dimethylamino)quinazolin-2-yl]amino}cyclohexyl)-N′-(4-methylphenyl)urea], the IC50 lay in the range of 50 to 200 nM.
Turning to `Cc1cc(C)c(NC(=O)N[C@H]2CC[C@@H](Nc3nc(N(C)C)c4ccccc4n3)CC2)c(C)c1` [compound 58, N-(cis-4-{[4-(dimethylamino)quinazolin-2-yl]amino}cyclohexyl)-N′-mesitylurea], the IC50 was less than 50 nM.
`Cc1cccc(NC(=O)N[C@H]2CC[C@@H](Nc3nc(N(C)C)c4ccccc4n3)CC2)c1` [compound 59, N-(cis-4-{[4-(dimethylamino)quinazolin-2-yl]amino}cyclohexyl)-N′-(3-methylphenyl)urea]: the IC50 was in the range of 50 to 200 nM.
With `Cc1ccccc1NC(=O)N[C@H]1CC[C@@H](Nc2nc(N(C)C)c3ccccc3n2)CC1` [compound 60, N-(cis-4-{[4-(dimethylamino)quinazolin-2-yl]amino}cyclohexyl)-N′-(2-methylphenyl)urea], the IC50 is less than 50 nM.
`CC(NC(=O)N[C@H]1CC[C@@H](Nc2nc(N(C)C)c3ccccc3n2)CC1)c1cccc2ccccc12` (stereo partly drawn) [compound 61, N-(cis-4-{[4-(dimethylamino)quinazolin-2-yl]amino}cyclohexyl)-N′-[1-(-napthyl)ethyl]urea]: the IC50 was less than 50 nM.
With `CN(C)c1nc(N[C@H]2CC[C@@H](NC(=O)Nc3c(Cl)cc(Cl)cc3Cl)CC2)nc2ccccc12` [compound 63, N-(cis-4-{[4-(dimethylamino)quinazolin-2-yl]amino}cyclohexyl)-N′-(2,4,6-trichlorophenyl)urea] the figure was less than 50 nM; with `Cc1ccc(NC(=O)N[C@H]2CC[C@@H](Nc3nc(N(C)C)c4ccccc4n3)CC2)cc1Cl` [compound 64], greater than 200 nM.
`CC(NC(=O)NC1CCC(Nc2nc(N(C)C)c3ccccc3n2)CC1)c1ccccc1` (stereo not drawn) [compound 66, 1-[4-(4-Dimethylamino-quinazolin-2-ylamino)-cyclohexyl]-3-(1-phenyl-ethyl)-urea]: the IC50 is less than 50 nM.
`CC(NC(=O)NC1CCC(Nc2nc(N(C)C)c3ccccc3n2)CC1)c1cccc2ccccc12` (stereo not drawn) [compound 67, 1-[4-(4-Dimethylamino-quinazolin-2-ylamino)-cyclohexyl]-3-(1-napthalen-1-yl-ethyl)-urea]: the IC50 is 50 to 200 nM.
As to `CC(C)c1cccc(C(C)C)c1NC(=O)N[C@H]1CC[C@@H](Nc2nc(N(C)C)c3ccccc3n2)CC1` [compound 68], the IC50 is greater than 200 nM.
For the compound `CN(C)c1nc(N[C@H]2CC[C@@H](NC(=O)Nc3ccccc3OC(F)F)CC2)nc2ccccc12` [compound 69], the IC50 was greater than 200 nM.
Turning to `COC(=O)c1ccccc1NC(=O)N[C@H]1CC[C@@H](Nc2nc(N(C)C)c3ccccc3n2)CC1` [compound 70, metyl 2-({[4(cis-4-{[-(dimethylamino)quinazolin-2-yl]amino}cyclohexyl)amino]carbonyl}amino)benzoate], the IC50 is greater than 200 nM.
Turning to `CSc1ccccc1NC(=O)N[C@H]1CC[C@@H](Nc2nc(N(C)C)c3ccccc3n2)CC1` [compound 71], the IC50 is 50 to 200 nM.
With `CN(C)c1nc(N[C@H]2CC[C@@H](NC(=O)Nc3c(Cl)c(Cl)cc(Cl)c3Cl)CC2)nc2ccccc12` [compound 72, N-(cis-4-{[4-(dimethylamino)quinazolin-2-yl]amino}cyclohexyl)-N′-(2,3,5,6-tetrachlorophenyl)urea] the figure was less than 50 nM.
In the case of `Cc1ccc([N+](=O)[O-])c(NC(=O)N[C@H]2CC[C@@H](Nc3nc(N(C)C)c4ccccc4n3)CC2)c1C` [compound 73, N-(cis-4-{[4-(dimethylamino)quinazolin-2-yl]amino}cyclohexyl)-N′-(2,3-dimethyl-6-nitrophenyl)urea], the IC50 lay in the range of 50 to 200 nM.
With `CN(C)c1nc(N[C@H]2CC[C@@H](NC(=O)Nc3cc(Cl)c(Cl)cc3Cl)CC2)nc2ccccc12` [compound 74] the figure was greater than 200 nM; with `CN(C)c1nc(N[C@H]2CC[C@@H](NC(=O)Nc3c(Br)cc(Br)cc3Br)CC2)nc2ccccc12` [compound 75, N-(cis-4-{[4-(dimethylamino)quinazolin-2-yl]amino}cyclohexyl)-N′-(2,4,6-tribromophenyl)urea], less than 50 nM.
`CN(C)c1nc(N[C@H]2CC[C@@H](NC(=O)Nc3c(F)cc(Br)cc3Br)CC2)nc2ccccc12` [compound 76, N-(2,4-dibromo-6-fluorophenyl)-N′-(cis-4-{[4-(dimethylamino)quinazolin-2-yl]amino}cyclohexyl)urea]: the IC50 is less than 50 nM.
With `CN(C)c1nc(N[C@H]2CC[C@@H](NC(=O)Nc3ccc(Br)cc3Br)CC2)nc2ccccc12` [compound 77, N-(2,4-dibromophenyl)-N′-(cis-4-{[4-(dimethylamino)quinazolin-2-yl]amino}cyclohexyl)urea] the figure was less than 50 nM; with `CN(C)c1nc(N[C@H]2CC[C@@H](NC(=O)NCc3ccc(Cl)cc3Cl)CC2)nc2ccccc12` [compound 78, N-(2,4-dichlorobenzyl)-N′-(cis-4-{[4-(dimethylamino)quinazolin-2-yl]amino}cyclohexyl)urea], less than 50 nM.
`COc1ccc(NC(=O)N[C@H]2CC[C@@H](Nc3nc(N(C)C)c4ccccc4n3)CC2)c(OC)c1` [compound 79]: the IC50 is less than 50 nM.
With `Cc1ccc(NC(=O)N[C@H]2CC[C@@H](Nc3nc(N(C)C)c4ccccc4n3)CC2)c(C)c1` [compound 80] the figure was greater than 200 nM; with `COc1ccc(OC)c(NC(=O)N[C@H]2CC[C@@H](Nc3nc(N(C)C)c4ccccc4n3)CC2)c1` [compound 81], 50 to 200 nM; with `Cc1ccc(C)c(NC(=O)N[C@H]2CC[C@@H](Nc3nc(N(C)C)c4ccccc4n3)CC2)c1` [compound 82], greater than 200 nM.
On to `CN(C)c1nc(N[C@H]2CC[C@@H](NC(=O)Nc3c(Br)cc(F)cc3Br)CC2)nc2ccccc12` [compound 83], for which the IC50 is greater than 200 nM.
For `CN(C)c1nc(N[C@H]2CC[C@@H](NC(=O)Nc3c(Cl)cccc3Cl)CC2)nc2ccccc12` [compound 84], the IC50 is greater than 200 nM.
With `CCc1cccc(CC)c1NC(=O)N[C@H]1CC[C@@H](Nc2nc(N(C)C)c3ccccc3n2)CC1` [compound 85, N-(2,6-diethylphenyl)-N′-(cis-4-{[4-(dimethylamino)quinazolin-2-yl]amino}cyclohexyl)urea] the figure was less than 50 nM; with `CN(C)c1nc(N[C@H]2CC[C@@H](NC(=O)Nc3ccccc3Cc3ccccc3)CC2)nc2ccccc12` [compound 86], greater than 200 nM.
Consider `Cc1ccc(Cl)c(NC(=O)N[C@H]2CC[C@@H](Nc3nc(N(C)C)c4ccccc4n3)CC2)c1` [compound 87], for which the IC50 is greater than 200 nM.
Take `CN(C)c1nc(N[C@H]2CC[C@@H](NC(=O)Nc3cc([N+](=O)[O-])ccc3Cl)CC2)nc2ccccc12` [compound 88]: the IC50 was in the range of 50 to 200 nM.
Turning to `CN(C)c1nc(N[C@H]2CC[C@@H](NC(=O)Nc3c(Cl)cccc3C(F)(F)F)CC2)nc2ccccc12` [compound 89, N-[2-chloro-6-(trifluoromethyl)phenyl]-N′-(cis-4-{[4-(dimethylamino)quinazolin-2-yl]amino}cyclohexyl)urea], the IC50 is less than 50 nM.
`Cc1cccc(Cl)c1NC(=O)N[C@H]1CC[C@@H](Nc2nc(N(C)C)c3ccccc3n2)CC1` [compound 90]: the IC50 is less than 50 nM.
In the case of `CN(C)c1nc(N[C@H]2CC[C@@H](NC(=O)NCc3ccccc3Cl)CC2)nc2ccccc12` [compound 91, N-(2-chlorobenzyl)-N′-(cis-4-{[4-(dimethylamino)quinazolin-2-yl]amino}cyclohexyl)urea], the IC50 is less than 50 nM.
Regarding `CCOc1ccccc1NC(=O)N[C@H]1CC[C@@H](Nc2nc(N(C)C)c3ccccc3n2)CC1` [compound 93, N-(cis-4-{[4-(dimethylamino)quinazolin-2-yl]amino}cyclohexyl)-N′-(2-ethoxyphenyl)urea], the IC50 is less than 50 nM.
With `CCc1cccc(C(C)C)c1NC(=O)N[C@H]1CC[C@@H](Nc2nc(N(C)C)c3ccccc3n2)CC1` [compound 94, N-(cis-4-{[4-(dimethylamino)quinazolin-2-yl]amino}cyclohexyl)-N′-(2-ethyl-6-isopropylphenyl)urea] the figure was less than 50 nM; with `CCc1ccccc1NC(=O)N[C@H]1CC[C@@H](Nc2nc(N(C)C)c3ccccc3n2)CC1` [compound 95, N-(cis-4-{[4-(dimethylamino)quinazolin-2-yl]amino}cyclohexyl)-N′-(2-ethylphenyl)urea], less than 50 nM.
Consider `CN(C)c1nc(N[C@H]2CC[C@@H](NC(=O)Nc3cccc(C(F)(F)F)c3F)CC2)nc2ccccc12` [compound 96], for which the IC50 is greater than 200 nM.
For `CN(C)c1nc(N[C@H]2CC[C@@H](NC(=O)Nc3cc(C(F)(F)F)ccc3F)CC2)nc2ccccc12` [compound 97, N-(cis-4-{[4-(dimethylamino)quinazolin-2-yl]amino}cyclohexyl)-N′-[2-fluro-5-(trifluoromethyl)phenyl]urea], the IC50 was greater than 200 nM.
Consider `Cc1ccc(F)c(NC(=O)N[C@H]2CC[C@@H](Nc3nc(N(C)C)c4ccccc4n3)CC2)c1` [compound 98, N-(cis-4-{[4-(dimethylamino)quinazolin-2-yl]amino}cyclohexyl)-N′-(2-fluro-5-methylphenyl)urea], for which the IC50 was greater than 200 nM.

(Values after patent publication US20070010671A1, “Novel quinazoline derivatives and methods of treatment related to the use thereof” (priority 2003, published 2007).)
